Source: ChEMBL document CHEMBL1201862, “PubChem BioAssay data set” (2004)
Several values for one entry are separate records, joined by “and”; a condition that tells them apart may be missing. Equal entries are not always repeated.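 Five compound concentrations were applied to cells in 96-well plates for 48 hours; endpoints were derived by simple linear interpolation of the resulting dose-response curve. The concentration for 50% growth inhibition is given as GI50.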 Activity calls are given as the source filed them. Rule as the data show it: active = GI50 up to about 1.1 µM and inactive = higher.

Legend:
Test in all cases: inhibition of tumour cell growth, NCI panel, 48 h
PC-3 = system: PC-3
CAKI-1 = system: CAKI-1
U-251 = system: U-251
OVCAR-5 = system: OVCAR-5
HOP-62 = system: HOP-62
HCT-116 = system: HCT-116
HT-29 = system: HT-29
SF-539 = system: SF-539
SK-MEL-2 = system: SK-MEL-2
COLO 205 = system: COLO 205
NCI-H23 = system: NCI-H23
UACC-257 = system: UACC-257
MOLT-4 = system: MOLT-4
HCC 2998 = system: HCC 2998
OVCAR-4 = system: OVCAR-4
M14 = system: M14
SR = system: SR
HL-60 = system: HL-60
TK-10 = system: TK-10
Hs-578T = system: Hs-578T

Measured: GI50

Cc1cccc(N/C(Sc2ccccc2)=C(/C(Cl)=C(Cl)Cl)[N+](=O)[O-])c1
inactive: PC-3 27 µM | CAKI-1 19.9 µM | U-251 15.4 µM | OVCAR-5 15.1 µM | HOP-62 20.3 µM | HCT-116 15.3 µM | HT-29 17.6 µM | SF-539 16.4 µM | SK-MEL-2 28.1 µM | COLO 205 15.6 µM | NCI-H23 20.1 µM | UACC-257 20.8 µM | MOLT-4 21.5 µM | HCC 2998 39.4 µM | OVCAR-4 17.5 µM | M14 18.8 µM

Nc1c(C(=O)c2ccc(Cl)cc2)[nH]c(Nc2ccc(Cl)cc2)c1C(=S)Nc1ccccc1
inactive: PC-3 10.6 µM | CAKI-1 6.05 µM | U-251 2.97 µM | SR 1.92 µM | OVCAR-5 11.8 µM | HOP-62 5.65 µM | HCT-116 3.7 µM | HT-29 4.99 µM | SF-539 5.41 µM | HL-60 49.5 µM | SK-MEL-2 11.7 µM | COLO 205 4.13 µM | NCI-H23 3.3 µM | UACC-257 11.2 µM | MOLT-4 9.44 µM | TK-10 5.4 µM | HCC 2998 2.74 µM | OVCAR-4 2.08 µM | M14 11.9 µM

Clc1ccc(C2=CCN3CC=C(c4ccc(Cl)cc4)C23)cc1
inactive: CAKI-1 14.3 µM | Hs-578T 13.5 µM | U-251 11 µM | SR 6.7 µM | OVCAR-5 3.78 µM | HOP-62 13.8 µM | HCT-116 5.98 µM | HT-29 5.21 µM | SF-539 15.9 µM | HL-60 4.78 µM | SK-MEL-2 15.5 µM | COLO 205 2.7 µM | NCI-H23 12 µM | UACC-257 11.8 µM | MOLT-4 5.28 µM | TK-10 14 µM | HCC 2998 3.06 µM | OVCAR-4 8.26 µM | M14 7.28 µM

CC(C)C1=CC(=O)[C@@](C)(C2[C@H](O)C[C@@]3(C)[C@@H]4CC=C5[C@@H](CC[C@@H](OC6OCC(O)C(O)C6OC6OC(C)C(O)C(O)C6O)C5(C)C)[C@]4(C)C(=O)C[C@]23C)O1 (some centres not stated)
inactive: PC-3 > 100 µM | CAKI-1 > 100 µM | Hs-578T > 100 µM | U-251 > 100 µM | OVCAR-5 > 100 µM | HOP-62 > 100 µM | HCT-116 > 100 µM | HT-29 > 100 µM | COLO 205 > 100 µM | NCI-H23 > 100 µM | MOLT-4 > 100 µM | HCC 2998 > 100 µM | OVCAR-4 > 100 µM | M14 > 100 µM

CC(=O)OC1COC(n2c(N)c(C#N)c(C)c(C#N)c2=S)C(OC(C)=O)C1OC(C)=O (configuration not stated)
inactive: PC-3 76.7 µM | CAKI-1 > 100 µM | SR > 100 µM and 54.1 µM | OVCAR-5 > 100 µM | HOP-62 > 100 µM | HT-29 > 100 µM | SF-539 > 100 µM | NCI-H23 > 100 µM | UACC-257 > 100 µM | TK-10 > 100 µM | HCC 2998 75.3 µM | M14 > 100 µM

CC1=CC(=O)NCCN1C
inactive: CAKI-1 > 100 µM | U-251 > 100 µM | SR > 100 µM | OVCAR-5 > 100 µM | HOP-62 > 100 µM | HCT-116 > 100 µM | HT-29 > 100 µM | SF-539 > 100 µM | HL-60 45.9 µM | SK-MEL-2 > 100 µM | COLO 205 > 100 µM | NCI-H23 > 100 µM | UACC-257 > 100 µM | MOLT-4 > 100 µM | TK-10 > 100 µM | HCC 2998 > 100 µM | OVCAR-4 > 100 µM | M14 > 100 µM

Cc1ccc2c(=O)c(C(=O)Nn3c(C)csc3=S)c[nH]c2n1
inactive: PC-3 > 100 µM | CAKI-1 69 µM | Hs-578T > 100 µM | U-251 > 100 µM | OVCAR-5 > 100 µM | HOP-62 > 100 µM | HCT-116 > 100 µM | HT-29 > 100 µM | HL-60 > 100 µM | SK-MEL-2 > 100 µM | COLO 205 > 100 µM | NCI-H23 > 100 µM | UACC-257 > 100 µM | MOLT-4 > 100 µM | TK-10 > 100 µM | OVCAR-4 > 100 µM | M14 > 100 µM

CCc1nnc(CC)n1NCCCC(=O)O
inactive: PC-3 > 100 µM | U-251 > 100 µM | SR > 100 µM | OVCAR-5 > 100 µM | HOP-62 > 100 µM | HCT-116 > 100 µM | HT-29 > 100 µM | SF-539 > 100 µM | SK-MEL-2 > 100 µM | COLO 205 > 100 µM | NCI-H23 > 100 µM | UACC-257 > 100 µM | MOLT-4 > 100 µM | TK-10 > 100 µM | HCC 2998 > 100 µM | OVCAR-4 > 100 µM | M14 > 100 µM

O=C(CSCC(=O)N/N=C/c1ccccc1)N/N=C\c1ccccc1
inactive: PC-3 > 100 µM | CAKI-1 > 100 µM | Hs-578T > 100 µM | U-251 > 100 µM | OVCAR-5 > 100 µM | HOP-62 > 100 µM | HCT-116 > 100 µM | HT-29 > 100 µM | SF-539 81.3 µM | SK-MEL-2 > 100 µM | COLO 205 > 100 µM | NCI-H23 > 100 µM | UACC-257 > 100 µM | MOLT-4 68.2 µM | TK-10 > 100 µM | OVCAR-4 > 100 µM | M14 > 100 µM

CN1CCN=C1c1nnn(-c2ccc([N+](=O)[O-])cc2)c1-c1ccccc1
inactive: CAKI-1 > 100 µM | U-251 94.6 µM | SR > 100 µM | OVCAR-5 > 100 µM | HOP-62 > 100 µM | HCT-116 > 100 µM | HT-29 64.9 µM | SF-539 > 100 µM | HL-60 18.8 µM | SK-MEL-2 > 100 µM | COLO 205 > 100 µM | NCI-H23 > 100 µM | UACC-257 > 100 µM | MOLT-4 > 100 µM | TK-10 > 100 µM | HCC 2998 > 100 µM | OVCAR-4 > 100 µM | M14 > 100 µM

N#CC(O)CCOCc1ccccc1 (configuration not stated)
inactive: PC-3 > 100 µM | CAKI-1 17.7 µM | U-251 > 100 µM | SR > 100 µM | OVCAR-5 > 100 µM | HOP-62 > 100 µM | HCT-116 66.5 µM | HT-29 38.6 µM | SF-539 85.3 µM | HL-60 34.4 µM | SK-MEL-2 > 100 µM | COLO 205 > 100 µM | NCI-H23 > 100 µM | UACC-257 > 100 µM | MOLT-4 3.39 µM | TK-10 > 100 µM | OVCAR-4 > 100 µM | M14 > 100 µM

NC1CC(=O)c2cscc21 (configuration not stated)
inactive: PC-3 52.7 µM | CAKI-1 15.9 µM | U-251 > 100 µM | OVCAR-5 > 100 µM | HOP-62 > 100 µM | HCT-116 67.5 µM | HT-29 > 100 µM | SF-539 37 µM | HL-60 13.6 µM | SK-MEL-2 > 100 µM | COLO 205 20.6 µM | NCI-H23 > 100 µM | UACC-257 93.5 µM | MOLT-4 20.6 µM | TK-10 19.1 µM | OVCAR-4 > 100 µM | M14 31.1 µM
